Earlier results, collected in article PMC8147660 (The Prostate, 2018).

Assays:
[1] = target: chymotrypsin; conditions: read-out: Ki for chymotrypsin; described in previous studies
[2] = target: PSA; conditions: read-out: PSA Ki; described in previous studies
[3] = cleared via A2M-receptor/LRP in the liver

Ahx-FSQn(boro)Bpg
Ki [1]: 580 nM
Ki [2]: 72 nM

PSA-A2M: PSA complexed with the serum protease inhibitor alpha-2-macroglobulin
Plasma half-life of the complex [3]: a few minutes
